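Five concentrations, 48 hours, 96-well plates. The concentration for 50% growth inhibition is given as GI50. TGI is the concentration that stops growth completely.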
What was measured:
Assay in all cases: growth of human tumour cells (NCI), 48 h
OVCAR-8 ovarian = test system: OVCAR-8 ovarian
SK-MEL-28 melanoma = test system: SK-MEL-28 melanoma
OVCAR-5 ovarian = test system: OVCAR-5 ovarian
SW-620 colon = test system: SW-620 colon
PC-3 prostate = test system: PC-3 prostate
SNB-19 CNS = test system: SNB-19 CNS
HL-60(TB) leukemia = test system: HL-60(TB) leukemia
HCC-2998 colon = test system: HCC-2998 colon
RXF 393 renal = test system: RXF 393 renal
UO-31 renal = test system: UO-31 renal
A498 renal = test system: A498 renal
OVCAR-3 ovarian = test system: OVCAR-3 ovarian
MDA-MB-435 = test system: MDA-MB-435
KM12 colon = test system: KM12 colon
K-562 leukemia = test system: K-562 leukemia
U251 CNS = test system: U251 CNS
ACHN renal = test system: ACHN renal
UACC-62 melanoma = test system: UACC-62 melanoma
EKVX NSCLC = test system: EKVX NSCLC
NCI/ADR-RES ovarian = test system: NCI/ADR-RES ovarian
SF-268 CNS = test system: SF-268 CNS
NCI-H226 lung = test system: NCI-H226 lung
MCF7 breast = test system: MCF7 breast
HT29 colon = test system: HT29 colon
OVCAR-4 ovarian = test system: OVCAR-4 ovarian
RPMI-8226 leukemia = test system: RPMI-8226 leukemia
MDA-MB-231 breast = test system: MDA-MB-231 breast
CCRF-CEM leukemia = test system: CCRF-CEM leukemia
SN12C renal = test system: SN12C renal
HOP-92 NSCLC = test system: HOP-92 NSCLC
SK-MEL-5 melanoma = test system: SK-MEL-5 melanoma
MALME-3M melanoma = test system: MALME-3M melanoma
DU-145 prostate = test system: DU-145 prostate
SK-MEL-2 melanoma = test system: SK-MEL-2 melanoma
CAKI-1 renal = test system: CAKI-1 renal
UACC-257 melanoma = test system: UACC-257 melanoma
T-47D breast = test system: T-47D breast
COLO 205 colon = test system: COLO 205 colon
MOLT-4 leukemia = test system: MOLT-4 leukemia
NCI-H23 lung = test system: NCI-H23 lung
IGROV1 ovarian = test system: IGROV1 ovarian
SK-OV-3 ovarian = test system: SK-OV-3 ovarian
LOX IMVI melanoma = test system: LOX IMVI melanoma
NCI-H460 lung = test system: NCI-H460 lung
NCI-H522 lung = test system: NCI-H522 lung
A549 NSCLC = test system: A549 NSCLC
HS 578T breast = test system: HS 578T breast
TK-10 renal = test system: TK-10 renal
SF-539 CNS = test system: SF-539 CNS
SF-295 CNS = test system: SF-295 CNS

## Cc1ccc2c(n1)C(=O)c1[nH]c3ccccc3c1C2=O
OVCAR-8 ovarian
  GI50: 2610 nM
  TGI: > 100000 nM
SK-MEL-28 melanoma
  GI50: 3870 nM
  TGI: > 100000 nM
OVCAR-5 ovarian
  GI50: 2110 nM
  TGI: 4540 nM
SW-620 colon
  GI50: 2970 nM
  TGI: > 100000 nM
PC-3 prostate
  GI50: 1630 nM
  TGI: > 100000 nM
SNB-19 CNS
  GI50: 2700 nM
  TGI: > 100000 nM
HL-60(TB) leukemia
  GI50: 2670 nM
  TGI: 9430 nM
HCC-2998 colon
  GI50: 1880 nM
  TGI: 6370 nM
RXF 393 renal
  GI50: 2720 nM
  TGI: 55400 nM
UO-31 renal
  GI50: 1630 nM
  TGI: 10700 nM
A498 renal
  GI50: 1380 nM
  TGI: 2760 nM
OVCAR-3 ovarian
  GI50: 1260 nM
  TGI: 5720 nM
MDA-MB-435
  GI50: 1590 nM
  TGI: 2940 nM
KM12 colon
  GI50: 3100 nM
  TGI: 19600 nM
K-562 leukemia
  GI50: 3140 nM
  TGI: > 100000 nM
U251 CNS
  GI50: 2930 nM
  TGI: > 100000 nM
ACHN renal
  GI50: 2100 nM
  TGI: 18600 nM
UACC-62 melanoma
  GI50: 557 nM
  TGI: 1880 nM
EKVX NSCLC
  GI50: 1220 nM
  TGI: 4170 nM
NCI/ADR-RES ovarian
  GI50: 2280 nM
  TGI: 9290 nM
SF-268 CNS
  GI50: 3820 nM
  TGI: > 100000 nM
NCI-H226 lung
  GI50: 1360 nM
  TGI: 3650 nM
MCF7 breast
  GI50: 586 nM
  TGI: 2630 nM
HT29 colon
  GI50: 3050 nM
  TGI: > 100000 nM
OVCAR-4 ovarian
  GI50: 1130 nM
  TGI: 2350 nM
RPMI-8226 leukemia
  GI50: 2250 nM
  TGI: 12300 nM
MDA-MB-231 breast
  GI50: 1850 nM
  TGI: 73600 nM
CCRF-CEM leukemia
  GI50: 3450 nM
  TGI: > 100000 nM
SN12C renal
  GI50: 2000 nM
  TGI: 6060 nM
HOP-92 NSCLC
  GI50: 2920 nM
  TGI: 29000 nM
SK-MEL-5 melanoma
  GI50: 212 nM
  TGI: 583 nM
MALME-3M melanoma
  GI50: 208 nM
  TGI: 1070 nM
DU-145 prostate
  GI50: 1190 nM
  TGI: 2530 nM
SK-MEL-2 melanoma
  GI50: 3360 nM
  TGI: > 100000 nM
CAKI-1 renal
  GI50: 2370 nM
  TGI: > 100000 nM
UACC-257 melanoma
  GI50: 513 nM
  TGI: 2050 nM
T-47D breast
  GI50: 537 nM
  TGI: 17900 nM
COLO 205 colon
  GI50: 1890 nM
  TGI: 4140 nM
MOLT-4 leukemia
  GI50: 3250 nM
  TGI: 18900 nM
NCI-H23 lung
  GI50: 687 nM
  TGI: 3790 nM
IGROV1 ovarian
  GI50: 81.9 nM
  TGI: 4300 nM
SK-OV-3 ovarian
  GI50: 4950 nM
  TGI: > 100000 nM
LOX IMVI melanoma
  GI50: 1010 nM
  TGI: 24800 nM
NCI-H460 lung
  GI50: 337 nM
  TGI: 1630 nM
NCI-H522 lung
  GI50: 2480 nM
  TGI: 9050 nM
A549 NSCLC
  GI50: 1610 nM
  TGI: 4370 nM
HS 578T breast
  GI50: 2540 nM
  TGI: 7160 nM
TK-10 renal
  GI50: 12000 nM
  TGI: > 100000 nM
SF-539 CNS
  GI50: 2150 nM
  TGI: 5110 nM
SF-295 CNS
  GI50: 761 nM
  TGI: 2050 nM

— PubChem BioAssay (NCI)
